Assay [1] concerns the target SphK2. As to conditions: read-out: SphK2 Ki; cited from earlier work.
The next assay has as its target T1, human SphK2 (Homo sapiens, UniProt Q9NRA0).
T1 sequence (Q9NRA0 1-654): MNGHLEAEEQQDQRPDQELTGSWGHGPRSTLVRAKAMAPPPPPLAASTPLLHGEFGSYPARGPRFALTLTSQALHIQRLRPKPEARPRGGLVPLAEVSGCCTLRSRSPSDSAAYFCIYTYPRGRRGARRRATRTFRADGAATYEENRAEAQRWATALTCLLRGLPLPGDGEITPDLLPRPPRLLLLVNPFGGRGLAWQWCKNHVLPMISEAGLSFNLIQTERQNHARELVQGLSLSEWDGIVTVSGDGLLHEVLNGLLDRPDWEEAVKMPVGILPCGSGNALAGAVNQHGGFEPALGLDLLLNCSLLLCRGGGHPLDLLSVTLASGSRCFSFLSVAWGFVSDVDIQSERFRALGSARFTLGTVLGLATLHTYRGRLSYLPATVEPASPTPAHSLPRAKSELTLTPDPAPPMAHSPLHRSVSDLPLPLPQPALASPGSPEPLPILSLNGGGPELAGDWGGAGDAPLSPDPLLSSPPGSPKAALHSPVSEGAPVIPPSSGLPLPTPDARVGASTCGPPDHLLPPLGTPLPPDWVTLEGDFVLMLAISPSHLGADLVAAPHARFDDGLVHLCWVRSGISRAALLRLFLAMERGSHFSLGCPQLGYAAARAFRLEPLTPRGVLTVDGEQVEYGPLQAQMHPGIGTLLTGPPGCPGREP
As to the kind of experiment: Recombinant hSphK2 activity, single-concentration screen. The conditions noted are these: for inhibition at 0.3 µM: read-out: inhibition of hSphK2 activity, compound 0.3 μM.

Assay [2] deals with SphK2. Briefly: FTY720-P formation in U937 cells treated with FTY720. The class given is cell-based. As to conditions: 1 μM FTY720, compound 0.1 μM to 1 μM, 2 hours, duplicate.
The next assay relates to U937 cells. As to the kind of experiment: S1P levels in U937 cells by LC-MS/MS. The conditions noted are these: 0.1 to 1 μM, 2 hours, duplicate. Format: cell-based.
Another assay addresses human SphK1 (Homo sapiens, UniProt Q9NYA1). Briefly: Recombinant hSphK1 activity, single-concentration screen. The conditions noted are these: compound 1 μM.

The values that follow come from publication PMC8224985 (European journal of medicinal chemistry, 2020).

Chain of human SphK1 (Q9NYA1 whole entry): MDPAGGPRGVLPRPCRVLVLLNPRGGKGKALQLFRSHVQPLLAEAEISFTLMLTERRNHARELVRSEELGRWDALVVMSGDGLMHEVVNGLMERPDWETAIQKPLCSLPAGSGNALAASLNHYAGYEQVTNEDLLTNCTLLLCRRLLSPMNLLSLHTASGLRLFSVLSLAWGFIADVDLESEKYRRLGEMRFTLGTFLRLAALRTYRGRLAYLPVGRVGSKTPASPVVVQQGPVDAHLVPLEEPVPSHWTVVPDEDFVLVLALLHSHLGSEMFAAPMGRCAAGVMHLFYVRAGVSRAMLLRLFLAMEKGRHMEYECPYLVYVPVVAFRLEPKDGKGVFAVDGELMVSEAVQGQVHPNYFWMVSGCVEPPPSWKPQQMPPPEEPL

A word on the Ki: it is a measure of affinity in units of concentration, obtained from inhibition or displacement. Consider `O=C(NCc1ccncc1)C12CC3CC(C1)CC(c1ccc(Cl)cc1)(C3)C2` [ABC294640], for which the Ki on SphK2 [1] was 10 µM.

As usually defined, the inhibition is the percentage by which the read-out fell short of the control. Take `CCCCCCCCCCn1cc(-c2noc([C@@H]3CCCN3C(=N)N)n2)c2ccccc21` [Compound 6h, (S)-Amino(2-(3-(1-decyl-1H-indol-3-yl)-1,2,4-oxadiazol-5-yl)pyrrolidin-1-yl)methaniminium chloride]: on human SphK2, the inhibition at 0.3 µM was greater than 50%.

On to `CCCCCCCCCCCCn1cc(-c2noc([C@@H]3CCCN3C(=N)N)n2)c2ccccc21` [Compound 6j, (S)-Amino(2-(3-(1-dodecyl-1H-indol-3-yl)-1,2,4-oxadiazol-5-yl)pyrrolidin-1-yl)methaniminium chloride], for which the inhibition at 0.3 µM on human SphK2 was greater than 50%.

Regarding `CCCCCCCCCCn1ccc2c(-c3noc([C@@H]4CCCN4C(=N)N)n3)cccc21` [Compound 6n, (S)-Amino(2-(3-(1-decyl-1H-indol-4-yl)-1,2,4-oxadiazol-5-yl)pyrrolidin-1-yl)methaniminium chloride], the inhibition at 0.3 µM at human SphK2 was 36%.

Turning to `CCCCCCCCCn1ccc2cc(-c3noc([C@@H]4CCCN4C(=N)N)n3)ccc21.Cl` [Compound 6r, (S)-Amino(2-(3-(1-nonyl-1H-indol-5-yl)-1,2,4-oxadiazol-5-yl)pyrrolidin-1-yl)methaniminium chloride], the “FTY720-P levels in cells” value in the assay with SphK2 [2] is listed as “concomitant decrease in FTY720-P in a dose dependent manner”. Moreover, the “S1P levels in cells” value with U937 cells is listed as “dose-dependent decrease”.

On to `CCCCCCCCCCn1ccc2cc(-c3noc([C@@H]4CCCN4C(=N)N)n3)ccc21` [Compound 6s, (S)-Amino(2-(3-(1-decyl-1H-indol-5-yl)-1,2,4-oxadiazol-5-yl)pyrrolidin-1-yl)methaniminium chloride], for which, on human SphK2, the inhibition at 0.3 µM is 70%.

In the case of `CCCCCCCCCCn1ccc2ccc(-c3noc([C@@H]4CCCN4C(=N)N)n3)cc21` [Compound 6w, (S)-Amino(2-(3-(1-decyl-1H-indol-6-yl)-1,2,4-oxadiazol-5-yl)pyrrolidin-1-yl)methaniminium chloride], the inhibition at 0.3 µM on human SphK2 stood at 32%.

As to `CCCCCCCCCn1cc(-c2noc(C[C@@H]3CCCN3C(=N)N)n2)c2ccccc21.Cl` [Compound 11, (S)-Amino(2-((3-(1-nonyl-1H-indol-3-yl)-1,2,4-oxadiazol-5-yl)methyl)pyrrolidin-1-yl)methaniminium chloride], the “effect on hSphK1 activity (in words)” value on human SphK1 is “inactive”. Besides, the “effect on hSphK2 activity (in words)” value on human SphK2 (compound 0.3 μM) is “inactive”.
